Assay results as given in patent US20050203110A1, “Mitotic kinesin inhibitors” (priority 2002, published 2005).

Molecular target: T1, human KSP motor domain (KSP(367H)) (Homo sapiens, UniProt P52732)
T1 construct: were used to amplify the motor domain and the neck linker region; made in house; host or cells: E. coli BL21 (DE3), pRSETa
T1 sequence (P52732 18-359 limits assumed): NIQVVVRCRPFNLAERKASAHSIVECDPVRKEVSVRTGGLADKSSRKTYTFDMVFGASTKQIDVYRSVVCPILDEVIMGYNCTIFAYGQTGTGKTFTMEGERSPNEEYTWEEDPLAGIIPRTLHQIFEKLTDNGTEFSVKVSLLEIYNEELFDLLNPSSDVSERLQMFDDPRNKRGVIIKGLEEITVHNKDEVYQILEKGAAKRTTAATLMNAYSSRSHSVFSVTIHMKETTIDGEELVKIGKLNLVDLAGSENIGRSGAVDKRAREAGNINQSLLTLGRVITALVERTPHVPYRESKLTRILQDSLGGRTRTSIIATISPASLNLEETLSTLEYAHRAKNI
Assay: Kinesin ATPase In Vitro Assay
Type: biochemical
Conditions: kinesin motor domain with microtubules, 1 mM ATP, 23° C.; free phosphate by quinaldine red/ammonium molybdate, absorbance 540 nm
Description: I. Kinesin ATPase In Vitro Assay
Cloning and Expression of Human Poly-Histidine Tagged KSP Motor Domain (KSP(367H))
Plasmids for the expression of the human KSP motor domain construct were cloned by PCR using a pBluescript full length human KSP construct (Blangy et al., Cell, vol. 83, pp1159-1169, 1995) as a template. The N-terminal primer 5′-[…] (SEQ.ID.NO.: 1) and the C-terminal primer 5′-[…] […] (SEQ.ID.NO.: 2) were used to amplify the motor domain and the neck linker region. The PCR products were digested with AseI and XhoI, ligated into the NdeI/XhoI digestion product of pRSETa (Invitrogen) and transformed into E. coli BL21 (DE3).
Cells were grown at 37° C. to an OD600 of 0.5. After cooling the culture to room temperature expression of KSP was induced with 100 μM IPTG and incubation was continued overnight. Cells were pelleted by centrifugation and washed once with ice-cold PBS. Pellets were flash-frozen and stored −80° C.
Cell pellets were thawed on ice and resuspended in lysis buffer (50 mM K-HEPES, pH 8.0, 250 mM KCl, 0.1% Tween, 10 mM imidazole, 0.5 mM Mg-ATP, 1 mM PMSF, 2 mM benzimidine, 1× complete protease inhibitor cocktail (Roche)). Cell suspensions were incubated with 1 mg/ml lysozyme and 5 mM β-mercaptoethanol on ice for 10 minutes, followed by sonication (3×30 sec). All subsequent procedures were performed at 4° C. Lysates were centrifuged at 40,000×g for 40 minutes. Supernatants were diluted and loaded onto an SP Sepharose column (Pharmacia, 5 ml cartridge) in buffer A (50 mM K-HEPES, pH 6.8, 1 mM MgCl2, 1 mM EGTA, 10 μM Mg-ATP, 1 mM DTT) and eluted with a 0 to 750 mM KCl gradient in buffer A. Fractions containing KSP were pooled and incubated with Ni-NTA resin (Qiagen) for one hour. The resin was washed three times with buffer B (Lysis buffer minus PMSF and protease inhibitor cocktail), followed by three 15-minute incubations and washes with buffer B. Finally, the resin was incubated and washed for 15 minutes three times with buffer C (same as buffer B except for pH 6.0) and poured into a column. […]
The kinesin motor domain is incubated with microtubules, 1 mM ATP (1:1 MgCl2:Na-ATP), and compound at 23° C. in buffer containing 80 mM K-HEPES (pH 7.0), 1 mM EGTA, 1 mM DTT, 1 mM MgCl2, and 50 mM KCl. […] Free phosphate from the ATP hydrolysis reaction is measured via a quinaldine red/ammonium molybdate assay by adding 150 μl of quench C buffer containing a 2:1 ratio of quench A:quench B. Quench A contains 0.1 mg/ml quinaldine red and 0.14% polyvinyl alcohol; quench B contains 12.3 mM ammonium molybdate tetrahydrate in 1.15 M sulfuric acid. The reaction is incubated for 10 minutes at 23° C., and the absorbance of the phospho-molybdate complex is measured at 540 nm.

For `CCC(c1nc2ncccc2c(=O)n1Cc1ccccc1)N(CCN(C)C)C(=O)c1ccc(Br)cc1` (stereo not shown) [Compound 1-6, N-[1-(3-benzyl-4-oxo-3,4-dihydropyrido[2,3-d]pyrimidin-2-yl)propyl]-4-bromo-N-[2-(dimethylamino)ethyl]benzamide], the IC50 was no more than 50 µM.

`CCC(c1nc2c(c(=O)n1Cc1ccccc1)CCCN2)N(CCN(C)C)C(=O)c1ccc(Br)cc1` (stereo not shown) [Compound 2-2, N-[1-(3-benzyl-4-oxo-3,4,5,6,7,8-hexahydropyrido[2,3-d]pyrimidin-2-yl)propyl]4-bromo-N-[2-(dimethylamino)ethyl]benzamide] was tested, and the IC50 was no more than 50 µM.

For `CCC(c1nc2cnccc2c(=O)n1Cc1ccccc1)N(CCN(C)C)C(=O)c1ccc(Br)cc1` (racemic) [Compound 3-7, 2-[1′-(N-4-bromobenzoyl)-(N,N-dimethylethylenediamino)propyl]-3-benzyl-pyrido[3,4-d]pyrimidin-4(3H)-one], the IC50 was no more than 50 µM.

`CCC(c1nc2cccnc2c(=O)n1Cc1ccccc1)N(CCN(C)C)C(=O)c1ccc(Br)cc1` (stereo not shown) [Compound 5-6, N-[1-(3-benzyl-4-oxo-3,4-dihydropyrido[3,2-d]pyrimidin-2-yl)propyl]-4-bromo-N-[2-(dimethylamino)ethyl]benzamide] showed an IC50 of no more than 50 µM.
